In patent publication US10456407B2, “Combination therapy for treating cancer” (Epizyme, Inc., priority 2015, dated 2019):

System: WSU-DLCL2 cells
Assay: RT2 Glucocorticoid signaling PCR array, WSU-DLCL2 (WSU) cell line (Table 4c)
Assay type: cell-based

C[C@]12C=CC(=O)C=C1CC[C@@H]1[C@@H]2[C@@H](O)C[C@@]2(C)[C@H]1CC[C@]2(O)C(=O)CO [Prednisolone, prednisolone]
ΔCT (B2M), MERTK (gene MERTK): 13.379 | Ct Values, MT2A (gene MT2A): 24.518 | ΔCT (B2M), MT2A (gene MT2A): 5.373 | ΔΔCT, MT2A (gene MT2A, compared to DMSO): 0.106 | Ct Values, NFKBIA (gene NFKBIA): 22.895 | ΔCT (B2M), NFKBIA (gene NFKBIA): 3.750 | ΔΔCT, NFKBIA (gene NFKBIA, compared to DMSO): 0.829 | Ct Values, NR3C1 (gene NR3C1): 23.110 | ΔCT (B2M), NR3C1 (gene NR3C1): 3.965 | ΔΔCT, NR3C1 (gene NR3C1, compared to DMSO): 0.165 | Ct Values, PDCD7 (gene PDCD7): 23.874 | ΔCT (B2M), PDCD7 (gene PDCD7): 4.729 | ΔΔCT, PDCD7 (gene PDCD7, compared to DMSO): 0.000 | Ct Values, PDP1 (gene PDP1): 24.957 | ΔCT (B2M), PDP1 (gene PDP1): 5.812 | ΔΔCT, PDP1 (gene PDP1, compared to DMSO): −0.109 | Ct Values, PER1 (gene PER1): 24.989 | ΔCT (B2M), PER1 (gene PER1): 5.844 | ΔΔCT, PER1 (gene PER1, compared to DMSO): 0.185 | Ct Values, PER2 (gene PER2): 24.218 | ΔCT (B2M), PER2 (gene PER2): 5.073 | ΔΔCT, PER2 (gene PER2, compared to DMSO): 0.072 | Ct Values, PIK3R1 (gene PIK3R1): 23.429 | ΔCT (B2M), PIK3R1 (gene PIK3R1): 4.284 | ΔΔCT, PIK3R1 (gene PIK3R1, compared to DMSO): 0.000 | Ct Values, PLD1 (gene PLD1): 35.266 | ΔCT (B2M), PLD1 (gene PLD1): 16.121 | Ct Values, PLEKHF1 (gene PLEKHF1): 26.977 | ΔCT (B2M), PLEKHF1 (gene PLEKHF1): 7.832 | ΔΔCT, PLEKHF1 (gene PLEKHF1, compared to DMSO): 0.077 | Ct Values, POU2F1 (gene POU2F1): 24.368 | ΔCT (B2M), POU2F1 (gene POU2F1): 5.223 | ΔΔCT, POU2F1 (gene POU2F1, compared to DMSO): 0.439 | Ct Values, POU2F2 (gene POU2F2): 22.565 | ΔCT (B2M), POU2F2 (gene POU2F2): 3.420 | ΔΔCT, POU2F2 (gene POU2F2, compared to DMSO): −0.753 | Ct Values, RASA3 (gene RASA3): 23.454 | ΔCT (B2M), RASA3 (gene RASA3): 4.309 | ΔΔCT, RASA3 (gene RASA3, compared to DMSO): −0.193 | Ct Values, RGS2 (gene RGS2): 23.962 | ΔCT (B2M), RGS2 (gene RGS2): 4.817 | ΔΔCT, RGS2 (gene RGS2, compared to DMSO): 1.365 | Ct Values, RHO8 (gene RHO8): 28.803 | ΔCT (B2M), RHO8 (gene RHO8): 9.658 | ΔΔCT, RHO8 (gene RHO8, compared to DMSO): −0.616 | Ct Values, RPLP0 (gene RPLP0): 15.330 | ΔCT (B2M), RPLP0 (gene RPLP0): −3.815 | Ct Values, SESN1 (gene SESN1): 25.915 | ΔCT (B2M), SESN1 (gene SESN1): 6.770 | ΔΔCT, SESN1 (gene SESN1, compared to DMSO): −2.469 | Ct Values, SGK1 (gene SGK1): 27.309 | ΔCT (B2M), SGK1 (gene SGK1): 8.164 | ΔΔCT, SGK1 (gene SGK1, compared to DMSO): 2.035 | Ct Values, SLC10A6 (gene SLC10A6): 37.200 | ΔCT (B2M), SLC10A6 (gene SLC10A6): 18.055 | ΔΔCT, SLC10A6 (gene SLC10A6, compared to DMSO): 0.888 | Ct Values, SLC19A2 (gene SLC19A2): 25.887 | ΔCT (B2M), SLC19A2 (gene SLC19A2): 6.742 | ΔΔCT, SLC19A2 (gene SLC19A2, compared to DMSO): −0.446 | Ct Values, SLC22A5 (gene SLC22A5): 29.427 | ΔCT (B2M), SLC22A5 (gene SLC22A5): 10.282 | ΔΔCT, SLC22A5 (gene SLC22A5, compared to DMSO): 0.831 | Ct Values, SNTA1 (gene SNTA1): 24.329 | ΔCT (B2M), SNTA1 (gene SNTA1): 5.184 | ΔΔCT, SNTA1 (gene SNTA1, compared to DMSO): 0.196 | Ct Values, SPHK1 (gene SPHK1): 29.804 | ΔCT (B2M), SPHK1 (gene SPHK1): 10.659 | ΔΔCT, SPHK1 (gene SPHK1, compared to DMSO): 0.466 | Ct Values, SPSB1 (gene SPSB1): 29.963 | ΔCT (B2M), SPSB1 (gene SPSB1): 10.818 | ΔΔCT, SPSB1 (gene SPSB1, compared to DMSO): 0.655 | Ct Values, STAT5A (gene STAT5A): 25.699 | ΔCT (B2M), STAT5A (gene STAT5A): 6.554 | ΔΔCT, STAT5A (gene STAT5A, compared to DMSO): 0.437 | Ct Values, STAT5B (gene STAT5B): 23.270 | ΔCT (B2M), STAT5B (gene STAT5B): 4.125 | ΔΔCT, STAT5B (gene STAT5B, compared to DMSO): 0.161 | Ct Values, TBL1XR1 (gene TBL1XR1): 21.479 | ΔCT (B2M), TBL1XR1 (gene TBL1XR1): 2.334 | ΔΔCT, TBL1XR1 (gene TBL1XR1, compared to DMSO): 0.182 | Ct Values, TNF (gene TNF): 24.151 | ΔCT (B2M), TNF (gene TNF): 5.006 | ΔΔCT, TNF (gene TNF, compared to DMSO): 0.762 | Ct Values, TNFAIP3 (gene TNFAIP3): 26.733 | ΔCT (B2M), TNFAIP3 (gene TNFAIP3): 7.588 | ΔΔCT, TNFAIP3 (gene TNFAIP3, compared to DMSO): 2.092 | Ct Values, TSC22D3 (gene TSC22D3): 22.481 | ΔCT (B2M), TSC22D3 (gene TSC22D3): 3.336 | ΔΔCT, TSC22D3 (gene TSC22D3, compared to DMSO): −2.728 | Ct Values, USP2 (gene USP2): 20.884 | ΔCT (B2M), USP2 (gene USP2): 1.739 | ΔΔCT, USP2 (gene USP2, compared to DMSO): −1.457 | Ct Values, USPS4 (gene USPS4): 26.453 | ΔCT (B2M), USPS4 (gene USPS4): 7.308 | ΔΔCT, USPS4 (gene USPS4, compared to DMSO): 0.209 | Ct Values, VDR (gene VDR): 29.232 | ΔCT (B2M), VDR (gene VDR): 10.087 | ΔΔCT, VDR (gene VDR, compared to DMSO): −0.565 | Ct Values, VLDLR (gene VLDLR): 30.596 | ΔCT (B2M), VLDLR (gene VLDLR): 11.451 | ΔΔCT, VLDLR (gene VLDLR, compared to DMSO): 2.649 | Ct Values, ZFP36 (gene ZFP36): 25.166 | ΔCT (B2M), ZFP36 (gene ZFP36): 6.021 | ΔΔCT, ZFP36 (gene ZFP36, compared to DMSO): 1.104 | Ct Values, ZHX3 (gene ZHX3): 25.570 | ΔCT (B2M), ZHX3 (gene ZHX3): 6.425 | ΔΔCT, ZHX3 (gene ZHX3, compared to DMSO): 0.101 | Ct Values, ZNF281 (gene ZNF281): 23.608 | ΔCT (B2M), ZNF281 (gene ZNF281): 4.463 | ΔΔCT, ZNF281 (gene ZNF281, compared to DMSO): −0.094
